Read-outs that look alike come from different tables or passages of the source.
Columns and labels:
[1] = test system: C. difficile toxins A and B; assay: Evaluation of chromogenic substrates for the Cdifftox Activity assay; assay type: biochemical, Clostridium difficile
Method: A Cdifftox Activity assay was used to identify fractions that contained PNPG cleavage activity. The assay consists of the Cdifftox substrate reagent composed of 10 mM PNPG, 50 mM Tris-HCl (pH 7.4), 50 mM NaCl, and 100 μM MnCl2. The assay was performed in Costar sterile polystyrene 96-well plates (Corning Inc., NY) by adding to each well 200 μl of sample or culture supernatant fluid containing the toxins and 100 μl of the reagent. The plate was incubated at 37° C. for 1-4 hrs and each reaction was stopped by the addition to the well of 40 μl of 3 M Na2CO3. Cleavage of the substrate was monitored by measuring the absorbance between 400-500 nm, with a SPECTRA max at 410 nm.
Plus 384 spectrophotometer (Molecular Devices, Sunnyvale, Calif.). To identify the best substrate for the assay, a number of substrates were evaluated including: p-nitrophenyl-α-D-glucopyranoside, 4-aminophenyl-α-D-glucopyranoside, 4-amino-phenyl-β-D-glucopyranoside, 5-benzyloxy-3-indoxyl-β-D-glucopyranoside, 5-bromo-6-chloro-3-indoxyl-β-D-glucopyranoside, 6-bromo-2-naphthyl-α-D-glucopyranoside, 6-chloro-3-indoxyl-α-D-glucopyranoside, 6-chloro-3-indoxyl-N-acetyl-beta-D-glucos-aminide, 5-bromo-3-indoxyl-β-D-galactopyranoside, and 5-bromo-4-chloro-3-indoxyl-β-D-galactopyranoside. […]

mammalian β-glucosidases = conditions: cited from earlier work
C. difficile toxin A [2] = biological target: T1, C. difficile toxin A (Clostridioides difficile, UniProt P16154); assay: biochemical; conditions: read-out: reduction of toxin A activity (percent inhibition)
C. difficile toxin B [3] = biological target: T2, C. difficile toxin B (Clostridioides difficile, UniProt P18177); assay: biochemical; conditions: read-out: reduction of toxin B activity (percent inhibition)
C. difficile toxin A [4] = biological target: T1, C. difficile toxin A; conditions: 0-300 mM
C. difficile spores = conditions: 0.1% or approximately 1.9 mM
C. difficile toxin B [5] = biological target: T2, C. difficile toxin B; conditions: 0-300 mM
[6] = test system: C. difficile toxins A and B; conditions: 0.1% or approximately 1.9 mM

T1 sequence (P16154 whole entry, looked up): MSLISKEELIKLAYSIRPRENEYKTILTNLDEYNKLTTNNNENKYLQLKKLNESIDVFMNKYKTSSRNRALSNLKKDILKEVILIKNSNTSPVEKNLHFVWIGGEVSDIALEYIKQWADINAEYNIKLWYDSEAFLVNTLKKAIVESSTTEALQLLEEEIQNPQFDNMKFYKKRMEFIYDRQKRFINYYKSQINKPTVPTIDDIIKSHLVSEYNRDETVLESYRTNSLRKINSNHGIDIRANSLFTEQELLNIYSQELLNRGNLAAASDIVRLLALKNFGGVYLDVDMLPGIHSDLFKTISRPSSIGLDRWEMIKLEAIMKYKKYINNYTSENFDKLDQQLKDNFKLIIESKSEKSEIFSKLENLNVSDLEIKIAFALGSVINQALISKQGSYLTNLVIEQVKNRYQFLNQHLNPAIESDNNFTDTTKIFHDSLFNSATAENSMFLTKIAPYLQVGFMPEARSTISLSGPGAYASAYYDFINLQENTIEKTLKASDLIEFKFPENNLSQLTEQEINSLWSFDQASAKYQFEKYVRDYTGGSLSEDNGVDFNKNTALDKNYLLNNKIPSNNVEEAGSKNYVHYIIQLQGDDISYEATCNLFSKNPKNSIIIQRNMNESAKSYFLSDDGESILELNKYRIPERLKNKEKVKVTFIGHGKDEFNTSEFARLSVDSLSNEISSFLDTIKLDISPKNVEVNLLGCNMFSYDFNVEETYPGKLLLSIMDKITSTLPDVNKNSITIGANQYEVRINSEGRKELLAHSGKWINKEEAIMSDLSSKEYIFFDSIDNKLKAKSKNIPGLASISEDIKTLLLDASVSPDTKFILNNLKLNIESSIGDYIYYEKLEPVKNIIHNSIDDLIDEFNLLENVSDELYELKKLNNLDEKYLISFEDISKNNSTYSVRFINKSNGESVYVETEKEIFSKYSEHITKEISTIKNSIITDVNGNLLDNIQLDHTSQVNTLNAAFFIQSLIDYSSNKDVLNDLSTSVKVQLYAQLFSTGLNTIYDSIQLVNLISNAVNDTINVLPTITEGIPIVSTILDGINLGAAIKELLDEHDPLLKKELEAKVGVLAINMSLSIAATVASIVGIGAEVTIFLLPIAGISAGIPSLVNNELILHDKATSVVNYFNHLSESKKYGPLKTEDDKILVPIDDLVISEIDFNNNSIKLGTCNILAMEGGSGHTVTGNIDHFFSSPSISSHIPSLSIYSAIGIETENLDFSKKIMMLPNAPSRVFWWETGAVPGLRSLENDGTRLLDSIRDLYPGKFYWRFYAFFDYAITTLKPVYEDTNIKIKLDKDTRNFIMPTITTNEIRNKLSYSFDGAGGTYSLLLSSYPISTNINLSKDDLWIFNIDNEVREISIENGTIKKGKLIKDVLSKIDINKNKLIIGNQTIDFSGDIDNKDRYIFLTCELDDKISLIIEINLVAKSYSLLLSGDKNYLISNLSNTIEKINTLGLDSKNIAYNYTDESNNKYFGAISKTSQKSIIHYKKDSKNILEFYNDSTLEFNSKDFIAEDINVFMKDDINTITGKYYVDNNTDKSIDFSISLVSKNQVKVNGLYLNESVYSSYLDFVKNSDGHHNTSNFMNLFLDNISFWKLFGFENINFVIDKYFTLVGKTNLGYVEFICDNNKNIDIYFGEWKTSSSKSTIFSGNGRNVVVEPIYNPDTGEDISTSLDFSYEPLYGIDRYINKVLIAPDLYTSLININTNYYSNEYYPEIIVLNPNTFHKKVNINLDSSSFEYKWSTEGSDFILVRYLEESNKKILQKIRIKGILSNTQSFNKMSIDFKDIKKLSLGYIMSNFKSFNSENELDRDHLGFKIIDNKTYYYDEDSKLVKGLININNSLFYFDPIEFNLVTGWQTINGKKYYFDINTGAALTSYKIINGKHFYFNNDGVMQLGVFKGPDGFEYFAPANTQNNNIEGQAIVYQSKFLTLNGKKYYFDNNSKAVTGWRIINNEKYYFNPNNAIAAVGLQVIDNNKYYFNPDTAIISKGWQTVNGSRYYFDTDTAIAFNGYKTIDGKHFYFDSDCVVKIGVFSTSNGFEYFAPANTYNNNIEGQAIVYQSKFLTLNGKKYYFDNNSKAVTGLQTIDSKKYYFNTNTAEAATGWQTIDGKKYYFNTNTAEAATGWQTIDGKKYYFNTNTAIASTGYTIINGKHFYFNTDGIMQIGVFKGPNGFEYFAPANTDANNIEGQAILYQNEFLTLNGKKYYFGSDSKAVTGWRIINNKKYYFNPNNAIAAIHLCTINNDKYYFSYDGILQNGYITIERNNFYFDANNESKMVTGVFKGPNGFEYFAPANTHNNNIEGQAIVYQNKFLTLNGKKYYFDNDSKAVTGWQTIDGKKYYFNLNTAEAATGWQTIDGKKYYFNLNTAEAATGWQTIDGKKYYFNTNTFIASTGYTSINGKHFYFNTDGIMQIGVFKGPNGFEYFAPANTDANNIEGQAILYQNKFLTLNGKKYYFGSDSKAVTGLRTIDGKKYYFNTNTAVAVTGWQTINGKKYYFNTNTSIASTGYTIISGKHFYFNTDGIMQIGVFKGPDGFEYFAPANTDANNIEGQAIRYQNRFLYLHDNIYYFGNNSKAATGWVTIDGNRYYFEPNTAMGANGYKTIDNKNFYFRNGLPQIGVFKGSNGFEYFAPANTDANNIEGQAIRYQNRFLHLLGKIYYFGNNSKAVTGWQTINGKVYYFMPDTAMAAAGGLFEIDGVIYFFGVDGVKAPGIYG
T2 sequence (P18177 whole entry): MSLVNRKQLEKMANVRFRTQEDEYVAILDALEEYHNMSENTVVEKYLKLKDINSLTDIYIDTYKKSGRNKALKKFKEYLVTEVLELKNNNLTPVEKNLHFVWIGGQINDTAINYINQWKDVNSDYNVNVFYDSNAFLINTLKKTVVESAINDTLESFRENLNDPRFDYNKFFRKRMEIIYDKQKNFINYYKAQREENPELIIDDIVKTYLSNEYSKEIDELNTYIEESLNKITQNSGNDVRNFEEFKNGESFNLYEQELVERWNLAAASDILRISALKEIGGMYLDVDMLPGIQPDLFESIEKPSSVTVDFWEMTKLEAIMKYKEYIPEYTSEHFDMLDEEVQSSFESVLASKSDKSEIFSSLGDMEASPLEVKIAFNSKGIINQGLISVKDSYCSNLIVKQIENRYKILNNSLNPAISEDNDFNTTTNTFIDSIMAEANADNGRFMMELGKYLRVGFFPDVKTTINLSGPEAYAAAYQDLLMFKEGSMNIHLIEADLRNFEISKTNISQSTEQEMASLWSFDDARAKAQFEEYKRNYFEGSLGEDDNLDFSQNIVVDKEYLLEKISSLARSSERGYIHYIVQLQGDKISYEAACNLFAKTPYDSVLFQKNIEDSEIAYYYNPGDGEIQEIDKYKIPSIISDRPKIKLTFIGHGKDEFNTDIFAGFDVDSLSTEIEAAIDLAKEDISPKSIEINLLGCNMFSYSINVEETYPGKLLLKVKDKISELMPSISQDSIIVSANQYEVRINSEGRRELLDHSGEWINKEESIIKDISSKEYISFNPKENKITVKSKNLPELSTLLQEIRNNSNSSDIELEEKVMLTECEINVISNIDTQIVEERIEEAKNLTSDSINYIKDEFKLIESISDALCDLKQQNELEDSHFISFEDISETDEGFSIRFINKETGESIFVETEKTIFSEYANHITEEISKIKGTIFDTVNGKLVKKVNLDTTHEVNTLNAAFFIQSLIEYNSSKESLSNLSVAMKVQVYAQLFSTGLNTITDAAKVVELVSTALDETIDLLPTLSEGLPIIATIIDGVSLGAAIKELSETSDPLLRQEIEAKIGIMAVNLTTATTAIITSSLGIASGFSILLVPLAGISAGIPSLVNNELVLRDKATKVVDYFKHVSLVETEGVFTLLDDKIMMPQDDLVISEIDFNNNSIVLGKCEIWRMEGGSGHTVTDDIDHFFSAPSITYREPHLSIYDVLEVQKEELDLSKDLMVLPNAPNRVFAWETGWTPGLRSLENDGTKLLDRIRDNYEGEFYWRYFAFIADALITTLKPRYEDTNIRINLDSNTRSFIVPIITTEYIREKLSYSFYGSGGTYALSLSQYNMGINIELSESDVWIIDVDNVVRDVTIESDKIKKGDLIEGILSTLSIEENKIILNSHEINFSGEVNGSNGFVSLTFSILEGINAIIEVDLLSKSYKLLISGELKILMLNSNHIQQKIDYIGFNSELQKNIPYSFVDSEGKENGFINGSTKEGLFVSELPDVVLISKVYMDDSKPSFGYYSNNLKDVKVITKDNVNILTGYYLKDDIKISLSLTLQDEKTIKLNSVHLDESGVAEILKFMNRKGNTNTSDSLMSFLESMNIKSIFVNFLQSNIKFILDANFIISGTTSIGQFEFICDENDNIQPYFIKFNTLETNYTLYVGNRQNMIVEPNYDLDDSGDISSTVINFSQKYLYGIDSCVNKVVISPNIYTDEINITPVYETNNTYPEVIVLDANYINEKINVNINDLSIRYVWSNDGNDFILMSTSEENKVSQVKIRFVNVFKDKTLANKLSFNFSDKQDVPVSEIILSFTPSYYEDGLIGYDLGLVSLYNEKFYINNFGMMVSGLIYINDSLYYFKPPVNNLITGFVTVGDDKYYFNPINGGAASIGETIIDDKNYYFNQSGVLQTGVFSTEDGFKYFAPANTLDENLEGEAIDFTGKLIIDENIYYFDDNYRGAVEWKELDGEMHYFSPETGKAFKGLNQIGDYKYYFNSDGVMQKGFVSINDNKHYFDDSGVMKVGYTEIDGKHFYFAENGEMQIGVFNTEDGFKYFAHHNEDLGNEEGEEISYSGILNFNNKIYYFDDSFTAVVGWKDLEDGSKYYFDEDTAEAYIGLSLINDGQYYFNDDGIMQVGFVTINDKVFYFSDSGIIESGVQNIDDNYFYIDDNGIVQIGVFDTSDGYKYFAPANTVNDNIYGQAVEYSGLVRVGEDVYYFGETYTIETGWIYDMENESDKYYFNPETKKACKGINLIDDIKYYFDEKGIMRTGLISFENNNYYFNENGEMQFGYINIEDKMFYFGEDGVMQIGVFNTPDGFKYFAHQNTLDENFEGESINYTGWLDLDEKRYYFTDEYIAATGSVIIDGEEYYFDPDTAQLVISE

O=[N+]([O-])c1ccc(O[C@@H]2O[C@H](CO)[C@@H](O)[C@H](O)[C@H]2O)cc1 [PNPG, p-nitrophenyl-β-D-glucopyranoside]
cleavage by the toxins compared with other substrates evaluated [1]: most efficient and sensitive, and had the lowest background

phosphatidylserine
inhibition of β-glucosidases, mode (mammalian β-glucosidases): non-competitive

C[C@H](CCC(=O)NCCS(=O)(=O)O)[C@H]1CC[C@H]2[C@@H]3[C@H](O)C[C@@H]4C[C@H](O)CC[C@]4(C)[C@H]3C[C@H](O)[C@]12C [sodium taurocholate]
inhibition at 300000 µM (C. difficile toxin A [2]): 71% | inhibition at 300000 µM (C. difficile toxin B [3]): 86% | inhibition of toxin A PNPG cleavage activity, dose response (C. difficile toxin A [4]): dose-dependent | effect on C. difficile spores in plate assay medium (C. difficile spores): serves as a germinant | inhibition of toxin B PNPG cleavage activity, dose response (C. difficile toxin B [5]): dose-dependent | inhibition of β-glucosidases, mode (mammalian β-glucosidases; listed as Sodium taurocholate): non-competitively inhibit | inhibition of β-glucosidases, mode (mammalian β-glucosidases; listed as taurocholate): non-competitive | inhibition of cleavage activity of the toxins at low concentration [6]: does not inhibit

Source: patent US20180016616A1, “METHODS AND COMPOSITIONS FOR THE DETECTION OF FUNCTIONAL CLOSTRIDIUM DIFFICILE TOXINS” (BOARD OF REGENTS OF THE UNIVERSITY OF TEXAS SYSTEM, priority 2011, published 2018)
